Literature values in publication PMC10080691, “Enzyme-Responsive Double-Locked Photodynamic Molecular Beacon for Targeted Photodynamic Anticancer Therapy” (Journal of the American Chemical Society, 2023).

Tests used:
[1] = in DMF; reference standard value; cited from earlier work
Description: The electronic absorption and fluorescence spectra of PMB 1 were first recorded in DMF and compared with those of the components 8 and 11, as well as the non-cleavable analogue 14 (Figure S2 and Table 1). […] In ...

[2] = in DMF; reference standard value; cited from earlier work; remark: listed apart in the source
Description: The singlet oxygen generation efficiency of 1 was then studied and compared with that of 8, 14, and ZnPc in all these media using 1,3-diphenylisobenzofuran (DPBF) as the singlet oxygen probe.[67] The absorbance of DPBF’s absorption at 415 nm (in DMF) or 417 nm (in PBS and the buffer) was monitored during light irradiation (λ > 610 nm). Figures S4–S6 show the changes in the absorption spectra of the mixtures in DMF, PBS, and the buffer, respectively, upon irradiation. It can be seen that in all these media while 8 and ZnPc could effectively sensitize the formation of singlet oxygen to induce su ...

## [Zn+2].c1ccc2c(c1)-c1nc-2nc2[n-]c(nc3nc([n-]c4nc(n1)-c1ccccc1-4)-c1ccccc1-3)c1ccccc21 [ZnPc, zinc(II) phthalocyanine]
[1]
  ΦF (fluorescence quantum yield) of reference: 0.28
[2]
  ΦΔ (singlet oxygen quantum yield) of reference: 0.56
